Results reported in patent publication US8742115B2, “Co-crystals and salts of CCR3-inhibitors” (Boehringer Ingelheim International GmbH, priority 2010, dated 2014).

These compounds were tested against human chemokine receptor CCR3 (Homo sapiens (Human), UniProt P51677) (assay: CCR3 receptor binding assay (SPA, 125I-eotaxin-1)). Settings: human Eotaxin-1 at human CCR3-Rezeptor; membranes of hCCR3-C1 (transfected K562) cells.
Experimental: The CCR3 receptor binding test is based on a K562 cell line (leukemia myelogenic blast cells) transfected with the human chemokine receptor CCR3 (hCCR3-C1 cells). The cell membranes were prepared by disrupting the hCCR3-C1 cells by […]. The preparation was centrifuged at 400 g 4° C. for 30 min. The supernatant was transferred into fresh tubes followed by a second centrifugation at 48000 g, 4° C. for 1 h. The membranes were re-suspended in the SPA incubation buffer (25 mM HEPES, 25 mM MgCl2 6×H2O, 1 mM CaCl2 2×H2O) without bovine serum albumin and homogenized by passing through a single use needle (Terumo, 23Gx1″). The membranes were stored in aliquots at −80° C.
The CCR3 receptor binding assay was performed in a Scintillation Proximity Assay (SPA) design with the radioligand recombinant human ^125Iodine-eotaxin-1. Cell membranes of hCCR3 C1 cells were again homogenized by passing through a single use needle (Terumo, 23Gx1″) and diluted in SPA incubation buffer in suitable concentrations (0.5-10 μg protein/well) in 96 well microtiter plates (1450-514, Perkin Elmer). The SPA assay was set up in the SPA incubation buffer with a final volume of 200 μl and final concentration of 25 mM HEPES, 25 mM MgCl2 6×H2O, 1 mM CaCl2 2×H2O and 0.1% bovine serum albumin. The SPA assay mixture contained 60 μl of the membrane suspension, 80 μl of Wheat Germ Agglutinin coated PVT beads (organic scintillator, GE Healthcare, RPNQ-0001) 0.2 mg/well), 40 μl of recombinant human ^125Jodine-eotaxin-1 (Biotrend), diluted in SPA buffer to a final concentration of 30.000 dpm per well, and 20 μl of the test compound (dissolved in DMSO dilutions). The SPA assay mixture was incubated for 2 h at room temperature. Bound radioactivity was determined with a scintillation counter (Micro Beta “Trilux”, Wallac). Included were controls for total binding (no displacer added, Bo) and non-specific binding (NSB) by adding unlabelled recombinant human Eotaxin-1 (Biotrend, Cat #300-21) or a reference compound.
Determination of the affinity of a test compound was calculated by subtraction of the non-specific binding (NSB) from the total binding (Bo) or the binding in the presence of the test compound (B) at a given compound concentration. The NSB value was set to 100% inhibition. The Bo-NSB value was set to 0% inhibition.

human chemokine receptor CCR3, sequence (P51677 whole entry): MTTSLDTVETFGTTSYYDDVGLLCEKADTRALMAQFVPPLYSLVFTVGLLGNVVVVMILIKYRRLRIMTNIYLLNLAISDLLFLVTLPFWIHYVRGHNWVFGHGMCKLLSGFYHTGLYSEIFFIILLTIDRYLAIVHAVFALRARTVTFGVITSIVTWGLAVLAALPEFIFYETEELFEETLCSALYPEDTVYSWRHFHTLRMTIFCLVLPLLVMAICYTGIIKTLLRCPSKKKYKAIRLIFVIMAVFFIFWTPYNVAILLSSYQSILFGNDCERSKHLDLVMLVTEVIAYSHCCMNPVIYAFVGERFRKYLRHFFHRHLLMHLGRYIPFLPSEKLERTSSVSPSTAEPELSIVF

SMILES	Ki
CNC(=O)c1ccnc(NC(=O)[C@H]2CCC(=O)N2C2CCN(Cc3ccc(Cl)c(C)c3)CC2)c1 [Example 1]	23.4 nM
Cc1cccc(NC(=O)[C@H]2CCC(=O)N2C2CCN(Cc3ccc(Cl)c(C)c3)CC2)n1 [Example 2]	69.6 nM
COc1ccnc(NC(=O)[C@H]2CCC(=O)N2C2CCN(Cc3ccc(Cl)c(C)c3)CC2)c1 [Example 3]	46.5 nM
Cc1ccnc(NC(=O)[C@H]2CCC(=O)N2C2CCN(Cc3ccc(Cl)c(C)c3)CC2)c1 [Example 4]	67.5 nM
CCc1ccnc(NC(=O)[C@H]2CCC(=O)N2C2CCN(Cc3ccc(Cl)c(C)c3)CC2)c1 [Example 5]	197 nM
CNC(=O)c1cccc(NC(=O)[C@H]2CCC(=O)N2C2CCN(Cc3ccc(Cl)c(C)c3)CC2)n1 [Example 6]	72 nM
CNC(=O)c1cc(C)nc(NC(=O)[C@H]2CCC(=O)N2C2CCN(Cc3ccc(Cl)c(C)c3)CC2)c1 [Example 7]	10.4 nM
Cc1cc(CN2CCC(N3C(=O)CC[C@@H]3C(=O)Nc3cc(C(=O)N(C)C)ccn3)CC2)ccc1Cl [Example 8]	8.5 nM
Cc1cc(C(=O)N2CCCC2)cc(NC(=O)[C@H]2CCC(=O)N2C2CCN(Cc3ccc(Cl)c(C)c3)CC2)n1 [Example 9]	0.9 nM
Cc1cc(C(=O)N(C)C)cc(NC(=O)[C@H]2CCC(=O)N2C2CCN(Cc3ccc(Cl)c(C)c3)CC2)n1 [Example 11]	3.2 nM
Cc1cc(CN2CCC(N3C(=O)CC[C@@H]3C(=O)Nc3cc(C(=O)N4CCCC4)ccn3)CC2)ccc1Cl [Example 12]	4.7 nM
Cc1cc(CN2CCC(N3C(=O)CC[C@@H]3C(=O)Nc3cc(C(=O)N4CCOCC4)ccn3)CC2)ccc1Cl [Example 13]	19.1 nM
Cc1cc(CN2CCC(N3C(=O)CC[C@@H]3C(=O)N(C)c3ccccn3)CC2)ccc1Cl [Example 14]	1400 nM
Cc1cc(C(=O)NCC2CC2)cc(NC(=O)[C@H]2CCC(=O)N2C2CCN(Cc3ccc(Cl)c(C)c3)CC2)n1 [Example 15]	3.5 nM
Cc1cc(C(=O)N2CCC2)cc(NC(=O)[C@H]2CCC(=O)N2C2CCN(Cc3ccc(Cl)c(C)c3)CC2)n1 [Example 16]	6.8 nM
Cc1cc(C(=O)NCC(C)C)cc(NC(=O)[C@H]2CCC(=O)N2C2CCN(Cc3ccc(Cl)c(C)c3)CC2)n1 [Example 17]	4.3 nM
Cc1cc(C(=O)NCC(F)F)cc(NC(=O)[C@H]2CCC(=O)N2C2CCN(Cc3ccc(Cl)c(C)c3)CC2)n1 [Example 18]	4.6 nM

SMILES	Ki
CCC(C)NC(=O)c1cc(C)nc(NC(=O)[C@H]2CCC(=O)N2C2CCN(Cc3ccc(Cl)c(C)c3)CC2)c1 (stereo partly shown) [Example 19]	4 nM
CCC(C)N(C)C(=O)c1cc(C)nc(NC(=O)[C@H]2CCC(=O)N2C2CCN(Cc3ccc(Cl)c(C)c3)CC2)c1 (stereo partly shown) [Example 21]	5.2 nM
Cc1cc(C(=O)N(C)C(C)C)cc(NC(=O)[C@H]2CCC(=O)N2C2CCN(Cc3ccc(Cl)c(C)c3)CC2)n1 [Example 22]	2.3 nM
Cc1cc(C(=O)NC2CCC2)cc(NC(=O)[C@H]2CCC(=O)N2C2CCN(Cc3ccc(Cl)c(C)c3)CC2)n1 [Example 23]	4.2 nM
Cc1cc(C(=O)N(C)C)cc(NC(=O)[C@H]2CCC(=O)N2C2CCN(Cc3ccc(Br)c(C)c3)CC2)n1 [Example 24]	5.8 nM
CCc1cc(C(=O)N(C)C)cc(NC(=O)[C@H]2CCC(=O)N2C2CCN(Cc3ccc(Cl)c(C)c3)CC2)n1 [Example 25]	8.3 nM
COc1cc(C(=O)N(C)C)cc(NC(=O)[C@H]2CCC(=O)N2C2CCN(Cc3ccc(Cl)c(C)c3)CC2)n1 [Example 26]	232 nM
CCCCc1cc(C(=O)N(C)C)cc(NC(=O)[C@H]2CCC(=O)N2C2CCN(Cc3ccc(Cl)c(C)c3)CC2)n1 [Example 27]	414 nM
Cc1cc(C(=O)N(C)C)cc(NC(=O)[C@H]2CCC(=O)N2C2CCN(Cc3ccc(Cl)c(Cl)c3)CC2)n1 [Example 28]	17.8 nM
Cc1cc(CN2CCC(N3C(=O)CC[C@@H]3C(=O)Nc3cc(C(=O)N(C)C)cc(C(C)C)n3)CC2)ccc1Cl [Example 29]	4.1 nM
Cc1cc(C(=O)N(C)C)cc(NC(=O)[C@H]2CCC(=O)N2C2CCN(Cc3ccc(F)c(C)c3)CC2)n1 [Example 30]	70.3 nM
Cc1cc(C(=O)N(C)C)cc(NC(=O)[C@H]2CCC(=O)N2C2CCN(Cc3ccc(Cl)c(C(F)(F)F)c3)CC2)n1 [Example 31]	87.2 nM
Cc1cc(CN2CCC(N3C(=O)CC[C@@H]3C(=O)Nc3cc(C(=O)N(C)C)cc(C4CC4)n3)CC2)ccc1Cl [Example 32]	2.3 nM
CCc1cc(CN2CCC(N3C(=O)CC[C@@H]3C(=O)Nc3cc(C(=O)N(C)C)cc(C)n3)CC2)ccc1Cl [Example 33]	7.9 nM
C#Cc1cc(C(=O)N(C)C)cc(NC(=O)[C@H]2CCC(=O)N2C2CCN(Cc3ccc(Cl)c(C)c3)CC2)n1 [Example 34]	7.9 nM
Cc1cc(C(=O)N(C)C)cc(NC(=O)[C@H]2CCC(=O)N2C2CCN(Cc3cc(C)c(Cl)c(C)c3)CC2)n1 [Example 35]	61.3 nM
CCN(C)C(=O)c1cc(C)nc(NC(=O)[C@H]2CCC(=O)N2C2CCN(Cc3ccc(Cl)c(C)c3)CC2)c1 [Example 36]	1.7 nM
